Laboratory results reported in patent US20250000877A1, “COMPOSITION CONTAINING TAURODEOXYCHOLIC ACID OR PHARMACEUTICALLY ACCEPTABLE SALT THEREOF AS ACTIVE INGREDIENT FOR PREVENTING OR TREATING VIRAL INFECTIOUS DISEASES” (SHAPERON INC., priority 2021, published 2025).
Where two headings read alike, the source gives them in different places.

Assays:
[1] = tested on: influenza virus CA04 (human H1N1); experiment: Lung lesions / histopathological scoring in influenza virus-infected animal model; type: in vivo, mice; conditions: for pathological scoring of lung lesions: score 0-4 per Table 2
Method: Specifically, female BLAB/C mice aged 7 weeks were purchased and allowed to acclimate for one week before the experiments commenced. The experimental animals were housed under conditions of 22±2° C. temperature, 55±5% relative humidity, and a 12-hour light-dark cycle. Water was provided ad libitum, and sterilized feed was freely accessible.
Next, as shown in the schematic diagram of FIG. 1, influenza virus CA04 (human H1N1) was intranasally inoculated at a concentration of 2LD50 (30 μl/mouse), and the drug was administered by dividing into four groups as shown in [Table 1] below. The positive control group was administered dexamethasone, an anti-inflammatory drug, as a drug, and the experimental group was administered HY209 as a low dose (1 mpk) or a high dose (4 mpk) as a drug. The drug was administered intraperitoneally at a dose of 100 μl/mouse on the third day after virus infection. In addition, lung tissues were separated and stored after autopsy of each group on the 7th day (7 dpi), 10th day (10 dpi), and 11th day (11 dpi) of virus infection.
Specifically, each of the test groups of Example 1 was autopsied on the 7th day (7 dpi), 10th day (10 dpi), and 11th day (11 dpi) of viral infection, and then the lungs were separated. The separated lung lesions were visually confirmed (FIGS. 3a to 3c), and lung lesions were scored according to the pathological scoring criteria of Table 2 below, and then graphed (FIGS. 4a and 4b).

IL-1β = type: in vivo, mice
[2] = 7 dpi, 1 mpk intraperitoneally from DPI 3, virus infection group G1 2.8±0.84
[3] = 11 dpi, 1 mpk intraperitoneally from DPI 3, virus infection group G1 4±0

SMILES: C[C@@H]1C[C@H]2[C@@H]3CCC4=CC(=O)C=C[C@]4(C)[C@@]3(F)[C@@H](O)C[C@]2(C)[C@@]1(O)C(=O)CO [dexamethasone, reference compound]
- pathological scoring of lung lesions [1, 2]: 1.8±0.45
- pathological scoring of lung lesions [1, 3]: 2.5±0.71

SMILES: C[C@H](CCC(=O)NCCS(=O)(=O)O)[C@H]1CC[C@H]2[C@@H]3CC[C@@H]4C[C@H](O)CC[C@]4(C)[C@H]3C[C@H](O)[C@]12C [HY209, Sodium taurodeoxycholate]
- pathological scoring of lung lesions [1, 2]: 2.6±0.55
- reduction in pathological scores compared to the virus infection group (G1) ([1]; 7 dpi, 4 mpk (G4), P=0.046): statistically significant reduction
- pathological scoring of lung lesions ([1]; 7 dpi, 4 mpk intraperitoneally from DPI 3, virus infection group G1 2.8±0.84): 1.8±0.45
- reduction in pathological scores compared to the virus infection group (G1) ([1]; 11 dpi, 1 mpk (G2 P=0.002, G3 P=0.013)): statistically significant reduction
- pathological scoring of lung lesions [1, 3]: 2.8±0.84
- reduction in pathological scores compared to the virus infection group (G1) ([1]; 11 dpi, 4 mpk (G4), P=0.0005): statistically significant reduction
- pathological scoring of lung lesions ([1]; 11 dpi, 4 mpk intraperitoneally from DPI 3, virus infection group G1 4±0): 2.29±0.76
- production of inflammatory cells in the lungs ([1]; low (1 mpk) or high (4 mpk) dose groups compared to the virus infection group, summary statement): reduced
- IL-1β levels (IL-1β; […], serum samples, HY209 1 mpk (G3) vs G1): significant decrease
- production of inflammatory cytokine IL-1β in the lungs (IL-1β; mouse, in vivo): reduced
- IL-1β levels in lung tissue samples (IL-1β; mouse, in vivo, 1 mg/kg): significant decrease
- IL-1β levels in lung tissue samples (IL-1β; mouse, in vivo, 4 mg/kg): significant decrease
